Test results taken from PubChem BioAssay AID1259407 (Chemical Carcinogenesis Research Information System (CCRIS), 2018).
The source made the active and inactive calls. The rule behind the calls is not given here.

Tested on: CCRIS mutagenicity, Ames/micronucleus/aberration tests
Assay: CCRIS mutagenicity studies
[1] = Test System: AMES SALMONELLA TYPHIMURIUM, Strain/Indicator: TA98, Metabolic Activation: NONE, Method: PREINCUBATION
[2] = Test System: AMES SALMONELLA TYPHIMURIUM, Strain/Indicator: TA100, Metabolic Activation: NONE, Method: PREINCUBATION
[3] = Test System: AMES SALMONELLA TYPHIMURIUM, Strain/Indicator: TA1535, Metabolic Activation: NONE, Method: PREINCUBATION
[4] = Test System: AMES SALMONELLA TYPHIMURIUM, Strain/Indicator: TA1537, Metabolic Activation: NONE, Method: PREINCUBATION
[5] = Test System: AMES SALMONELLA TYPHIMURIUM, Strain/Indicator: TA1538, Metabolic Activation: NONE, Method: PREINCUBATION
[6] = Test System: AMES SALMONELLA TYPHIMURIUM, Strain/Indicator: TA98, Metabolic Activation: NONE, Method: STANDARD PLATE
[7] = Test System: AMES SALMONELLA TYPHIMURIUM, Strain/Indicator: TA98, Metabolic Activation: RAT, LIVER, S-9, AROCLOR 1254, Method: STANDARD PLATE
[8] = Test System: AMES SALMONELLA TYPHIMURIUM, Strain/Indicator: TA100, Metabolic Activation: NONE, Method: STANDARD PLATE
[9] = Test System: AMES SALMONELLA TYPHIMURIUM, Strain/Indicator: TA100, Metabolic Activation: RAT, LIVER, S-9, AROCLOR 1254, Method: STANDARD PLATE

Compound: N#Cc1ccccc1C#N
- mutagenic call [1]: inactive; negative
- mutagenic call (Test System: AMES SALMONELLA TYPHIMURIUM, Strain/Indicator: TA98, Metabolic Activation: RAT LIVER S-9, PHENOBARBITAL AND BETA-NAPHTHOFLAVONE, Method: PREINCUBATION): inactive; negative
- mutagenic call [2]: inactive; negative
- mutagenic call (Test System: AMES SALMONELLA TYPHIMURIUM, Strain/Indicator: TA100, Metabolic Activation: RAT LIVER S-9, PHENOBARBITAL AND BETA-NAPHTHOFLAVONE, Method: PREINCUBATION): inactive; negative
- mutagenic call [3]: inactive; negative
- mutagenic call (Test System: AMES SALMONELLA TYPHIMURIUM, Strain/Indicator: TA1535, Metabolic Activation: RAT LIVER S-9, PHENOBARBITAL AND BETA-NAPHTHOFLAVONE, Method: PREINCUBATION): inactive; negative
- mutagenic call [4]: inactive; negative
- mutagenic call (Test System: AMES SALMONELLA TYPHIMURIUM, Strain/Indicator: TA1537, Metabolic Activation: RAT LIVER S-9, PHENOBARBITAL AND BETA-NAPHTHOFLAVONE, Method: PREINCUBATION): inactive; negative
- mutagenic call [5]: inactive; negative
- mutagenic call (Test System: AMES SALMONELLA TYPHIMURIUM, Strain/Indicator: TA1538, Metabolic Activation: RAT LIVER S-9, PHENOBARBITAL AND BETA-NAPHTHOFLAVONE, Method: PREINCUBATION): inactive; negative
- mutagenic call (Test System: E.COLI, Strain/Indicator: WP2UVRA, Metabolic Activation: NONE, Method: PREINCUBATION): inactive; negative
- mutagenic call (Test System: E.COLI, Strain/Indicator: WP2UVRA, Metabolic Activation: RAT LIVER S-9, PHENOBARBITAL AND BETA-NAPHTHOFLAVONE, Method: PREINCUBATION): inactive; negative

Compound: O=C(c1ccc([N+](=O)[O-])cc1)[C@@H]1O[C@@H]1c1ccccc1
- mutagenic call [6]: inactive; negative
- mutagenic call [7]: inactive; negative
- mutagenic call [8]: active; positive
- mutagenic call [9]: active; positive

Compound: O=C1c2ccccc2C(=O)c2c1cc(O[C@H]1O[C@H](CO[C@@H]3OC[C@@H](O)[C@H](O)[C@H]3O)[C@@H](O)[C@H](O)[C@H]1O)c(CO)c2O
- mutagenic call (Test System: AMES SALMONELLA TYPHIMURIUM, Strain/Indicator: TA98, Metabolic Activation: NONE, Method: PREINCUBATION (PH 6.5 OR 7.4)): inactive; negative
- mutagenic call (Test System: AMES SALMONELLA TYPHIMURIUM, Strain/Indicator: TA98, Metabolic Activation: RAT, LIVER, S-9, SODIUM BARBITAL AND BETA-NAPHTHOFLAVONE, Method: PREINCUBATION (PH 6.5 OR 7.4)): inactive; negative
- mutagenic call (Test System: AMES SALMONELLA TYPHIMURIUM, Strain/Indicator: TA100, Metabolic Activation: NONE, Method: PREINCUBATION (PH 6.5 OR 7.4)): active; positive
- mutagenic call (Test System: AMES SALMONELLA TYPHIMURIUM, Strain/Indicator: TA100, Metabolic Activation: RAT, LIVER, S-9, SODIUM BARBITAL AND BETA-NAPHTHOFLAVONE, Method: PREINCUBATION): inactive; negative

Compound: Cc1cc2cc3cc(C)c(N)cc3nc2cc1N
- mutagenic call (Test System: AMES SALMONELLA TYPHIMURIUM, Strain/Indicator: TA98, Method: PREINCUBATION): active; positive
- mutagenic call (Test System: AMES SALMONELLA TYPHIMURIUM, Strain/Indicator: TA100, Method: PREINCUBATION): active; positive

Compound: COc1cc2c3c(c1O)-c1cc4c(cc1C[C@@H]3N(C)CC2)OCO4
- mutagenic call (Test System: AMES SALMONELLA TYPHIMURIUM, Strain/Indicator: TA100, Metabolic Activation: RAT, LIVER, S-9, PHENOBARBITAL AND BETA-NAPHTHOFLAVONE, Method: PREINCUBATION): inactive; negative

Compound: Cc1ccc(OS(=O)(=O)c2cccc3cccnc23)c([N+](=O)[O-])c1
- mutagenic call [6]: active; positive
- mutagenic call [7]: active; positive
- mutagenic call [8]: active; positive
- mutagenic call [9]: active; positive
- mutagenic call (Test System: AMES SALMONELLA TYPHIMURIUM, Strain/Indicator: TA1535, Metabolic Activation: NONE, Method: STANDARD PLATE): inactive; negative
- mutagenic call (Test System: AMES SALMONELLA TYPHIMURIUM, Strain/Indicator: TA1535, Metabolic Activation: RAT, LIVER, S-9, AROCLOR 1254, Method: STANDARD PLATE): inactive; negative
- mutagenic call (Test System: AMES SALMONELLA TYPHIMURIUM, Strain/Indicator: TA1537, Metabolic Activation: NONE, Method: STANDARD PLATE): active; positive
- mutagenic call (Test System: AMES SALMONELLA TYPHIMURIUM, Strain/Indicator: TA1537, Metabolic Activation: RAT, LIVER, S-9, AROCLOR 1254, Method: STANDARD PLATE): active; positive

Compound: CC(=O)O[C@H]1CC[C@@]2(C)C(=CC[C@H]3[C@@H]4CC[C@H]([C@H](C)CCCC(C)C)[C@@]4(C)CC[C@@H]32)C1
- mutagenic call (Test System: AMES SALMONELLA TYPHIMURIUM, Strain/Indicator: TA97A, Metabolic Activation: NONE, Method: STANDARD PLATE): inactive; negative
- mutagenic call (Test System: AMES SALMONELLA TYPHIMURIUM, Strain/Indicator: TA97A, Metabolic Activation: RAT, LIVER, S-9, AROCLOR 1254, Method: STANDARD PLATE): inactive; negative
- mutagenic call [8]: inactive; negative
- mutagenic call [9]: inactive; negative
- mutagenic call (Test System: AMES SALMONELLA TYPHIMURIUM, Strain/Indicator: TA102, Metabolic Activation: NONE, Method: STANDARD PLATE): inactive; negative
- mutagenic call (Test System: AMES SALMONELLA TYPHIMURIUM, Strain/Indicator: TA102, Metabolic Activation: RAT, LIVER, S-9, AROCLOR 1254, Method: STANDARD PLATE): inactive; negative
- mutagenic call (Test System: AMES SALMONELLA TYPHIMURIUM, Strain/Indicator: TA104, Metabolic Activation: NONE, Method: STANDARD PLATE): inactive; negative
- mutagenic call (Test System: AMES SALMONELLA TYPHIMURIUM, Strain/Indicator: TA104, Metabolic Activation: RAT, LIVER, S-9, AROCLOR 1254, Method: STANDARD PLATE): inactive; negative

Compound: CC(O)C(C)O (configuration not stated)
- mutagenic call [1]: inactive; negative
- mutagenic call [2]: inactive; negative
- mutagenic call [3]: inactive; negative
- mutagenic call [4]: inactive; negative
- mutagenic call [5]: inactive; negative
- mutagenic call (Test System: E. COLI, Strain/Indicator: WP2 UVRA, Metabolic Activation: NONE, Method: PREINCUBATION): inactive; negative

Compound: c1cc[c]([Sn]([c]2ccccc2)([c]2ccccc2)[c]2ccccc2)cc1
- mutagenic call (Test System: AMES SALMONELLA TYPHIMURIUM, Strain/Indicator: TA98, Metabolic Activation: NONE, Method: SUSPENSION/PLATE): inactive; negative
- mutagenic call (Test System: AMES SALMONELLA TYPHIMURIUM, Strain/Indicator: TA100, Metabolic Activation: NONE, Method: SUSPENSION/PLATE): inactive; negative
